Data on four compounds can be found in patent publication US6068850A, “Aqueous formulations of peptides” (Alza Corporation, priority 1999, dated 2000).

“And” between values parts separate entries of the source, which are not always exact repeats. Identical values can stand only once. Like-named read-outs stand apart in the source and are kept apart here.

The nature of series [1]: Stability of 40-45% goserelin formulations, one month at 37° C., RP-HPLC. In kind it is physicochemical. The note with it: for % PURITY / % CONCENTRATION: 40-45% (w/w); for % CONCENTRATION: patent calls these data inconclusive. As for the experimental part:
Stability samples were analyzed using RP-HPLC. The area under the curve for the leuprolide peak divided by the sum of the areas under the curve of all peaks gave % purity. […] Formulations of 40-45% (w/w) goserelin in either acetate buffer, with 3% mannitol or acetate buffer with salt (0.9% NaCl) were prepared as described above and placed in polymeric containers. The containers were stored at 37° C. for one month in an incubator. The samples were analyzed using RP-HPLC to determine the chemical stability of the aged formulations.

Series [2] can be described thus: Accelerated stability of 30% goserelin at 80° C., purity by RP-HPLC. In kind it is physicochemical. The note with it: 30% (w/w) in acetate buffer pH 5.0 with 3% mannitol, glass ampules, after 9 days.
Series [3] is described as follows: Gelation of aqueous peptide formulations on adding polar aprotic solvents such as DMSO. As to conditions: aqueous formulation. The format is physicochemical. An excerpt:
Thus, these solvents have an anti-gellant effect.

The format of series [4] is physicochemical. The note with it: for evaporated from reservoir / % Leuprolide at Day 7: 88° C.; for evaporated from reservoir: 7 days. The text has this: The reservoirs of implantable drug delivery devices (as disclosed in U.S. patent application Ser. No. 08/595,761, incorporated herein by reference) were filled with the appropriate leuprolide acetate solution. The filled devices then underwent stability testing. The formulation was filled into titanium or polymer reservoirs with a polymer plug blocking each end. The filled reservoir was then sealed in a polyfoil bag and placed in a stability testing oven. […] The chromatographic conditions used are listed below. Leuprolide standards (in water) at 4 to 6 different concentration levels, typically between 0.1-1.2 mg/mL, were run along with the stability samples. The stability samples were bracketed by the standard sets, with no more than 40 samples in between the standard sets. All peaks between the void volume and 45 minutes of the run were integrated. The integrated peak areas for the leuprolide standards were plotted as a function of the concentration. The leuprolide concentrations for the stability samples were then calculated using linear regression. The % peak areas for the leuprolide peak, the sum of all the peaks eluting before leuprolide (labeled "others"), and the sum of all the peaks eluting after leuprolide (labeled "aggregates") were also recorded and plotted as a function of the sample timepoints. Formulations of 40% (w/w) leuprolide acetate (equivalent to about 37% leuprolide free base) in either sterile distilled water, ethanol/water (70/30) or water with 10% Tween 20 were prepared as described above and used to fill the reservoirs of implantable drug delivery devices, also as described above. Some reservoirs were made of polymer materials, while some were titanium. The filled devices were subjected to accelerated aging by storing them at elevated temperatures (80-88° C.) for seven days in an incubator (Precision Scientific or Thelco). This is equivalent to about 1.5 years at 37° C. or about four years at room temperature (25° C.), assuming an activation energy (Ea) or 22.2 kcal/mole. The samples were analyzed using RP-HPLC and SEC as described above to determine the chemical and physical stability of the aged formulations.

For series [5] the following is noted: 40% in water, nine months at 37° C., RP-HPLC.
Protocol: All stability samples were analyzed for leuprolide concentration and % peak area using a gradient elution reversed-phase HPLC assay with a refrigerated autosampler (4° C.) to minimize sample degradation.
A short description of series [6]: Stability of 40% leuprolide acetate formulations after 2.5 megarad gamma irradiation and accelerated aging, RP-HPLC and SEC. In kind it is physicochemical. The note with it: for % Leuprolide at Day 7 (RP-HPLC) / SEC Day 0 % dimer/trimer / SEC Day 0 % monomer / SEC Day 7 % dimer/trimer / SEC Day 7 % monomer: 40% in Water. As for the experimental part:
(§1) The chromatographic conditions used are listed below.
Formulations of 40% (w/w) as received leuprolide acetate (equivalent to 37% leuprolide free base) in water were prepared as described above and used to fill the reservoirs of drug delivery devices, also as described above. Some reservoirs were made of polymer materials, while some were titanium.
The filled devices were subjected to 2.5 megarad gamma irradiation. Samples were shipped to Sterigenics (Tustin, Calif.) and gamma irradiated (Cobalt 60) in batch mode. Samples were then subjected to accelerated aging as in Example 1. Samples labeled "cold" were shipped and irradiated on dry ice. Samples were taken at day 0 and day 7, and analyzed using RP-HPLC and SEC as described above to determine the chemical and physical stability of the irradiated formulations.

The procedure of series [7]:
as §1
Selected stability samples were analyzed for % peak area and molecular weights using an isocratic solution SEC assay with a refrigerated autosampler (4° C.). The chromatographic conditions used are listed below.
Solutions of 40% leuprolide acetate (w/w) in water were prepared, loaded into reservoirs, stored for two months at 80° C. and analyzed as described above.
Leuprolide acetate solutions (40% (w/w) in water) were prepared, loaded, stored at 37° C., 50° C., 65° C. or 80° C. and analyzed using RP-HPLC as described above.
Solutions of 40% leuprolide acetate (w/w) in water were prepared, loaded into reservoirs, stored at 37° C., 50° C., 65° C. or 80° C. and analyzed using RP-HPLC as described above.

The subject of a further series is bacteria. The series can be described thus: Bacteriostatic, bactericidal and sporicidal activity of leuprolide formulations; spiking with bacteria. The note with it: formulations of 50-400 mg/ml.
Series [8] can be described thus: Stability of 15% nafarelin formulation, one month at 37° C., RP-HPLC. The format is physicochemical. As to conditions: 15% (w/w), Acetate Buffer/Mannitol. As for the experimental part:
Stability samples were analyzed using RP-HPLC. The area under the curve for the leuprolide peak divided by the sum of the areas under the curve of all peaks gave % purity. […] Formulations of 15% (w/w) nafarelin in acetate buffer with 3% mannitol were prepared as described above and placed in polymeric containers. The containers were stored at 37° C. for one month in an incubator. The samples were analyzed using RP-HPLC to determine the chemical stability of the aged formulations.

The mark [9] stands for this setting: Acetate Buffer/Salt (0.9% NaCl).
[10] abbreviates: all Table IV formulations, after irradiation and 7 days accelerated aging.
Setting [11] is: polymer reservoir, irradiated cold (on dry ice).
[12] abbreviates: polymer reservoir, not irradiated.
Where [13] appears, read: titanium reservoir, not irradiated.

Take `CC(C)C[C@H](NC(=O)[C@@H](COC(C)(C)C)NC(=O)[C@H](Cc1ccc(O)cc1)NC(=O)[C@H](CO)NC(=O)[C@H](Cc1c[nH]c2ccccc12)NC(=O)[C@H](Cc1cnc[nH]1)NC(=O)[C@@H]1CCC(=O)N1)C(=O)N[C@@H](CCCNC(=N)N)C(=O)N1CCC[C@H]1C(=O)NNC(N)=O` [Goserelin, goserelin]: the “% PURITY” value came out at 98.1% in [1] (Acetate Buffer/Mannitol) and 98.0% in [1] (setting [9]). Further, the figures for the “% CONCENTRATION” value in series [1] (Acetate Buffer/Mannitol) and in series [1] (setting [9]) were 54.2% and 50.1%, respectively. For the same compound, the “goserelin retained, in each case” value in series [1] (both vehicles) is given as “at least 98%”. Also, the goserelin remained result in series [2] is on record as “about 65%”. For the same compound, the “effect of adding polar aprotic solvents such as DMSO on gelation” value (shortened to “effect”) in series [3] was “prevents gelation”.
With `CCNC(=O)[C@@H]1CCCN1C(=O)[C@H](CCCNC(=N)N)NC(=O)[C@H](CC(C)C)NC(=O)[C@@H](CC(C)C)NC(=O)[C@H](Cc1ccc(O)cc1)NC(=O)[C@H](CO)NC(=O)[C@H](Cc1c[nH]c2ccccc12)NC(=O)[C@H](Cc1c[nH]cn1)NC(=O)[C@@H]1CCC(=O)N1` [Leuprolide Acetate, leuprolide acetate], the “effect” value in series [3] is listed as “prevents gelation”. Also, the evaporated from reservoir in series [4] (polymer reservoir, 40% in EtOH/H2O) is reported as 60%; in series [4] (polymer reservoir, 40% in Water (sample with 66% leuprolide)), 10%. Moreover, the “% Leuprolide at Day 7” value in series [4] (polymer reservoir, 40% in 10% Tween 20) is 65%; in series [4] (polymer reservoir, 40% in EtOH/H2O (70/30)), 85%; in [4] (polymer reservoir, 40% in Water), 68% and 66%; in series [4] (titanium reservoir, 40% in Water), 71%. Besides, the “leuprolide retained, in each case” value in series [4] (all Table III formulations, 7 days at 80-88° C.) was “at least 65%”. The same compound came in with a leuprolide present in [5] of 88.3%. Further, in series [5], the “physical aggregates ("late")” value is reported as 3.5%. The aggregate formation entry in [6] (setting [10]) is reported as “low levels of aggregate formation”. The “leuprolide retained, in every case” value in series [6] (setting [10]) is given as “at least 65%”. Also, the “% Leuprolide at Day 7 (RP-HPLC)” value is 75% in series [6] (polymer reservoir, irradiated); 79% in [6] (setting [11]); 75% in series [6] (setting [12]); 83% and 81% and 73% and 79% and 74% in series [6] (titanium reservoir, irradiated); 82% in series [6] (setting [13]). The “SEC Day 0 % dimer/trimer” value was 1.2% in [6] (polymer reservoir, irradiated); 0.2% in series [6] (setting [11]); 0.2% in series [6] (setting [12]); 1.1% and 0.9% and 0.8% and 0.5% in [6] (titanium reservoir, irradiated); 0% in series [6] (setting [13]). For the same compound, the “SEC Day 0 % monomer” value in [6] (polymer reservoir, irradiated) is 90.4%; in series [6] (setting [11]) it was 89.4%; in series [6] (setting [12]), 99.8%; in series [6] (titanium reservoir, irradiated), 98.5% and 98.8% and 99.1% and 99% and 98.6%; in series [6] (setting [13]) it was 99.6% and 99.9%. For the same compound, the “SEC Day 7 % dimer/trimer” value in series [6] (polymer reservoir, irradiated) was 3.9%; in series [6] (setting [11]) it was 3.1%; in [6] (setting [12]), 3.1%; in [6] (titanium reservoir, irradiated) it was 2% and 2.4% and 3% and 3.4% and 3.6%; in series [6] (setting [13]), 0% and 1.9%. Moreover, the “SEC Day 7 % monomer” value in series [6] (polymer reservoir, irradiated) was 80.9%; in [6] (setting [11]) it was 80.3%; in [6] (setting [12]), 82.4%; in [6] (titanium reservoir, irradiated), 84.9% and 94.7% and 88.3% and 94.3% and 90.9%; in series [6] (setting [13]), 96.6% and 95%. Further, the chemical degradation in series [7] stood at 14.6%. The “activation energy (Ea) of leuprolide loss” value in series [7] (40% (w/w) in water, 37-80° C.) came out at 22.2 kcal/mol. Further, the Kobs is given as 7.24 × 10^-3 months^-1 in [7] (40% (w/w) in water, 37° C.); 3.21 × 10^-2 months^-1 in series [7] (40% (w/w) in water, 50° C.); 0.111 months^-1 in series [7] (40% (w/w) in water, 65° C.); 0.655 months^-1 in series [7] (40% (w/w) in water, 80° C.). For the same compound, the t1/2 in [7] (40% (w/w) in water, 37° C.) came to 95.7 months; in series [7] (40% (w/w) in water, 50° C.), 21.6 months; in series [7] (40% (w/w) in water, 65° C.), 6.3 months; in [7] (40% (w/w) in water, 80° C.) it was 1.1 months. This compound gave a t90 in series [7] (40% (w/w) in water, 37° C.) of 13.8 months. In series [7] (40% (w/w) in water, two months at 80° C.), this compound gave a physical aggregation of 5.1%. The compound further showed a leuprolide recovered in series [7] (40% (w/w) in water, two months at 80° C., RP-HPLC) of 81.1%. Moreover, in [7] (40% in water, two months at 80° C., dimer and trimer only), the “aggregation by SEC (FIG. 2)” value is reported as “very little aggregation”. Also, in the series with bacteria, the antimicrobial activity result was “bacteriostatic, bactericidal and sporicidal activity”. Also, the “stability of samples after spiking with bacteria” value in the series on bacteria is recorded as “unaffected”.
For `CC(C)C[C@H](NC(=O)[C@@H](Cc1ccc2ccccc2c1)NC(=O)[C@H](Cc1ccc(O)cc1)NC(=O)[C@H](CO)NC(=O)[C@H](Cc1c[nH]c2ccccc12)NC(=O)[C@H](Cc1c[nH]cn1)NC(=O)[C@@H]1CCC(=O)N1)C(=O)N[C@@H](CCCNC(=N)N)C(=O)N1CCC[C@H]1C(=O)NCC(N)=O` [Nafarelin, nafarelin], in series [8], the “% PURITY” value stood at 98.8% and the nafarelin retained entry is listed as “at least 98%”. For the same compound, the “% CONCENTRATION” value in [8] (patent calls these data inconclusive) is listed as 18.3%.
Regarding calcitonin, the “effect” value in [3] is reported as “prevents gelation”.
